Experiments:
Format in all cases: in vivo
Set-up in all cases: scale not given here
[1] = tested on: Abutilon theophrasti medicus; test: Herbicidal effects in upland field soil treatment (Test Example 2); details: 1000 g active ingredient per hectare, 21st day after treatment, criteria of Table 138
How it was run: (§1)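 Seeds sown in upland soil and covered; surface sprayed with water-diluted wettable powder, 1000 g a.i./ha, spray volume 1000 L/ha. Greenhouse growth, visual herbicidal rating at day 21.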

[2] = tested on: Amaranthus viridis L.; test: as above; details: 1000 g active ingredient per hectare, 21st day after treatment, criteria of Table 138
How it was run: as §1

[3] = tested on: Echinochloa oryzicola Vasing; test: Herbicidal effects in paddy field soil treatment (Test Example 1); details: for Herbicidal effects index, Echinochloa oryzicola Vasing: paddy field soil treatment, 1000 g of the active ingredient per hectare, wettable powder added dropwise on water surface, 21st day after treatment
How it was run: (§2)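 Paddy soil pre-emergence test: seeds sown, flooded 3 cm; next day wettable powder in water applied dropwise to water surface, 1000 g a.i./ha; greenhouse; effect rated visually on scale at 21 d post-treatment.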

[4] = tested on: Scirpus juncoides Roxb. var. ohwianus. T. Koyama; test: as above; details: for Herbicidal effects index, Scirpus juncoides Roxb. var. ohwianus. T. Koyama: paddy field soil treatment, 1000 g of the active ingredient per hectare, wettable powder added dropwise on water surface, 21st day after treatment
How it was run: as §2

[5] = tested on: Monochoria vaginalis (Burm. f.) Presl var. plantaginea (Roxb.) Solms-Laub.; test: as above; details: for Herbicidal effects index, Monochoria vaginalis (Burm. f.) Presl var. plantaginea (Roxb.) Solms-Laub.: paddy field soil treatment, 1000 g of the active ingredient per hectare, wettable powder added dropwise on water surface, 21st day after treatment
How it was run: as §2

[6] = tested on: Abutilon theophrasti medicus; test: Herbicidal effects in upland field foliar treatment (Test Example 3); details: 1000 g of the active ingredient per hectare, 14th day after the treatment, wettable powder, criteria of Table 138
How it was run: (§3)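 Greenhouse pot test, upland soil; 2-wk-old plants sprayed from above with water-diluted wettable powder (1000 L/ha spray volume, 1000 g a.i./ha). Regrown in greenhouse; visual herbicidal score on day 14 post-treatment.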

[7] = tested on: Echinochloa crus-galli (L.) P. Beauv. var. crus-galli; test: as above; details: 1000 g of the active ingredient per hectare, 14th day after the treatment, wettable powder, criteria of Table 138
How it was run: as §3

[8] = tested on: Amaranthus viridis L.; test: as above; details: 1000 g of the active ingredient per hectare, 14th day after the treatment, wettable powder, criteria of Table 138
How it was run: as §3

[9] = paddy field soil treatment (Test Example 1), criteria of Table 138

O=C1CCCC(O)=C1C(=O)c1nc2cccnc2n(-c2ccccc2Cl)c1=O [IV-9]
5: herbicidal effect (index) on Abutilon theophrasti medicus [1] | herbicidal effect (index) on Amaranthus viridis L. [2] | Herbicidal effects index, Echinochloa oryzicola Vasing [3] | Herbicidal effects index, Scirpus juncoides Roxb. var. ohwianus. T. Koyama [4] | Herbicidal effects index, Monochoria vaginalis (Burm. f.) Presl var. plantaginea (Roxb.) Solms-Laub. [5] | herbicidal effects on Abutilon theophrasti medicus [6] | herbicidal effects on Echinochloa crus-galli (L.) P. Beauv. var. crus-galli [7] | herbicidal effects on Amaranthus viridis L. [8]

O=C1CCCC(O)=C1C(=O)c1nc2cccnc2n(-c2cccc(Cl)c2)c1=O [IV-11]
5: herbicidal effect (index) on Abutilon theophrasti medicus [1] | herbicidal effect (index) on Amaranthus viridis L. [2] | Herbicidal effects index, Echinochloa oryzicola Vasing [3] | Herbicidal effects index, Scirpus juncoides Roxb. var. ohwianus. T. Koyama [4] | Herbicidal effects index, Monochoria vaginalis (Burm. f.) Presl var. plantaginea (Roxb.) Solms-Laub. [5] | herbicidal effects on Abutilon theophrasti medicus [6] | herbicidal effects on Echinochloa crus-galli (L.) P. Beauv. var. crus-galli [7] | herbicidal effects on Amaranthus viridis L. [8]

O=C1CCCC(O)=C1C(=O)c1nc2cccnc2n(-c2ccc(Cl)cc2)c1=O [IV-13]
5: herbicidal effect (index) on Abutilon theophrasti medicus [1] | herbicidal effect (index) on Amaranthus viridis L. [2] | Herbicidal effects index, Echinochloa oryzicola Vasing [3] | Herbicidal effects index, Scirpus juncoides Roxb. var. ohwianus. T. Koyama [4] | Herbicidal effects index, Monochoria vaginalis (Burm. f.) Presl var. plantaginea (Roxb.) Solms-Laub. [5] | herbicidal effects on Abutilon theophrasti medicus [6] | herbicidal effects on Echinochloa crus-galli (L.) P. Beauv. var. crus-galli [7] | herbicidal effects on Amaranthus viridis L. [8]

O=C1CCCC(O)=C1C(=O)c1nc2cccnc2n(-c2cccc(Br)c2)c1=O [IV-17]
5: herbicidal effect (index) on Abutilon theophrasti medicus [1] | herbicidal effect (index) on Amaranthus viridis L. [2] | Herbicidal effects index, Echinochloa oryzicola Vasing [3] | Herbicidal effects index, Scirpus juncoides Roxb. var. ohwianus. T. Koyama [4] | Herbicidal effects index, Monochoria vaginalis (Burm. f.) Presl var. plantaginea (Roxb.) Solms-Laub. [5] | herbicidal effects on Abutilon theophrasti medicus [6] | herbicidal effects on Echinochloa crus-galli (L.) P. Beauv. var. crus-galli [7] | herbicidal effects on Amaranthus viridis L. [8]

O=C1CCCC(O)=C1C(=O)c1nc2cccnc2n(-c2ccc(Br)cc2)c1=O [IV-18]
5: herbicidal effect (index) on Abutilon theophrasti medicus [1] | herbicidal effect (index) on Amaranthus viridis L. [2] | Herbicidal effects index, Echinochloa oryzicola Vasing [3] | Herbicidal effects index, Scirpus juncoides Roxb. var. ohwianus. T. Koyama [4] | Herbicidal effects index, Monochoria vaginalis (Burm. f.) Presl var. plantaginea (Roxb.) Solms-Laub. [5] | herbicidal effects on Abutilon theophrasti medicus [6] | herbicidal effects on Echinochloa crus-galli (L.) P. Beauv. var. crus-galli [7] | herbicidal effects on Amaranthus viridis L. [8]

Cc1ccccc1-n1c(=O)c(C(=O)C2=C(O)CCCC2=O)nc2cccnc21 [IV-19]
5: herbicidal effect (index) on Abutilon theophrasti medicus [1] | herbicidal effect (index) on Amaranthus viridis L. [2] | Herbicidal effects index, Echinochloa oryzicola Vasing [3] | Herbicidal effects index, Scirpus juncoides Roxb. var. ohwianus. T. Koyama [4] | Herbicidal effects index, Monochoria vaginalis (Burm. f.) Presl var. plantaginea (Roxb.) Solms-Laub. [5] | herbicidal effects on Abutilon theophrasti medicus [6] | herbicidal effects on Echinochloa crus-galli (L.) P. Beauv. var. crus-galli [7] | herbicidal effects on Amaranthus viridis L. [8]

Cc1cccc(-n2c(=O)c(C(=O)C3=C(O)CCCC3=O)nc3cccnc32)c1 [IV-20]
5: herbicidal effect (index) on Abutilon theophrasti medicus [1] | herbicidal effect (index) on Amaranthus viridis L. [2] | Herbicidal effects index, Echinochloa oryzicola Vasing [3] | Herbicidal effects index, Scirpus juncoides Roxb. var. ohwianus. T. Koyama [4] | Herbicidal effects index, Monochoria vaginalis (Burm. f.) Presl var. plantaginea (Roxb.) Solms-Laub. [5] | herbicidal effects on Abutilon theophrasti medicus [6] | herbicidal effects on Echinochloa crus-galli (L.) P. Beauv. var. crus-galli [7] | herbicidal effects on Amaranthus viridis L. [8]

Cc1ccc(-n2c(=O)c(C(=O)C3=C(O)CCCC3=O)nc3cccnc32)cc1 [IV-21]
5: herbicidal effect (index) on Abutilon theophrasti medicus [1] | herbicidal effect (index) on Amaranthus viridis L. [2] | Herbicidal effects index, Echinochloa oryzicola Vasing [3] | Herbicidal effects index, Scirpus juncoides Roxb. var. ohwianus. T. Koyama [4] | Herbicidal effects index, Monochoria vaginalis (Burm. f.) Presl var. plantaginea (Roxb.) Solms-Laub. [5] | herbicidal effects on Abutilon theophrasti medicus [6] | herbicidal effects on Echinochloa crus-galli (L.) P. Beauv. var. crus-galli [7] | herbicidal effects on Amaranthus viridis L. [8]

CCc1cccc(-n2c(=O)c(C(=O)C3=C(O)CCCC3=O)nc3cccnc32)c1 [IV-23]
4: herbicidal effects on Abutilon theophrasti medicus [6]
5: herbicidal effect (index) on Abutilon theophrasti medicus [1] | herbicidal effect (index) on Amaranthus viridis L. [2] | Herbicidal effects index, Echinochloa oryzicola Vasing [3] | Herbicidal effects index, Scirpus juncoides Roxb. var. ohwianus. T. Koyama [4] | Herbicidal effects index, Monochoria vaginalis (Burm. f.) Presl var. plantaginea (Roxb.) Solms-Laub. [5] | herbicidal effects on Echinochloa crus-galli (L.) P. Beauv. var. crus-galli [7] | herbicidal effects on Amaranthus viridis L. [8]

CCc1ccc(-n2c(=O)c(C(=O)C3=C(O)CCCC3=O)nc3cccnc32)cc1 [IV-24]
5: herbicidal effect (index) on Abutilon theophrasti medicus [1] | herbicidal effect (index) on Amaranthus viridis L. [2] | Herbicidal effects index, Echinochloa oryzicola Vasing [3] | Herbicidal effects index, Scirpus juncoides Roxb. var. ohwianus. T. Koyama [4] | Herbicidal effects index, Monochoria vaginalis (Burm. f.) Presl var. plantaginea (Roxb.) Solms-Laub. [5] | herbicidal effects on Echinochloa crus-galli (L.) P. Beauv. var. crus-galli [7] | herbicidal effects on Amaranthus viridis L. [8]
4: herbicidal effects on Abutilon theophrasti medicus [6]

CC(C)c1ccc(-n2c(=O)c(C(=O)C3=C(O)CCCC3=O)nc3cccnc32)cc1 [IV-30]
5: herbicidal effect (index) on Amaranthus viridis L. [2] | Herbicidal effects index, Echinochloa oryzicola Vasing [3] | Herbicidal effects index, Scirpus juncoides Roxb. var. ohwianus. T. Koyama [4] | Herbicidal effects index, Monochoria vaginalis (Burm. f.) Presl var. plantaginea (Roxb.) Solms-Laub. [5] | herbicidal effects on Echinochloa crus-galli (L.) P. Beauv. var. crus-galli [7] | herbicidal effects on Amaranthus viridis L. [8]
4: herbicidal effect (index) on Abutilon theophrasti medicus [1] | herbicidal effects on Abutilon theophrasti medicus [6]

O=C1CCCC(O)=C1C(=O)c1nc2cccnc2n(-c2ccc(C3CC3)cc2)c1=O [IV-33]
5: herbicidal effect (index) on Abutilon theophrasti medicus [1] | herbicidal effect (index) on Amaranthus viridis L. [2] | Herbicidal effects index, Echinochloa oryzicola Vasing [3] | Herbicidal effects index, Scirpus juncoides Roxb. var. ohwianus. T. Koyama [4] | Herbicidal effects index, Monochoria vaginalis (Burm. f.) Presl var. plantaginea (Roxb.) Solms-Laub. [5] | herbicidal effects on Abutilon theophrasti medicus [6] | herbicidal effects on Echinochloa crus-galli (L.) P. Beauv. var. crus-galli [7] | herbicidal effects on Amaranthus viridis L. [8]

O=C1CCCC(O)=C1C(=O)c1nc2cccnc2n(-c2ccccc2C(F)(F)F)c1=O [IV-34]
5: herbicidal effect (index) on Abutilon theophrasti medicus [1] | herbicidal effect (index) on Amaranthus viridis L. [2] | Herbicidal effects index, Echinochloa oryzicola Vasing [3] | Herbicidal effects index, Scirpus juncoides Roxb. var. ohwianus. T. Koyama [4] | Herbicidal effects index, Monochoria vaginalis (Burm. f.) Presl var. plantaginea (Roxb.) Solms-Laub. [5] | herbicidal effects on Abutilon theophrasti medicus [6] | herbicidal effects on Echinochloa crus-galli (L.) P. Beauv. var. crus-galli [7] | herbicidal effects on Amaranthus viridis L. [8]

O=C1CCCC(O)=C1C(=O)c1nc2cccnc2n(-c2cccc(C(F)(F)F)c2)c1=O [IV-39]
5: herbicidal effect (index) on Abutilon theophrasti medicus [1] | herbicidal effect (index) on Amaranthus viridis L. [2] | Herbicidal effects index, Echinochloa oryzicola Vasing [3] | Herbicidal effects index, Scirpus juncoides Roxb. var. ohwianus. T. Koyama [4] | Herbicidal effects index, Monochoria vaginalis (Burm. f.) Presl var. plantaginea (Roxb.) Solms-Laub. [5] | herbicidal effects on Abutilon theophrasti medicus [6] | herbicidal effects on Echinochloa crus-galli (L.) P. Beauv. var. crus-galli [7] | herbicidal effects on Amaranthus viridis L. [8]

CC1(C)CCC(=O)C(C(=O)c2nc3cccnc3n(-c3cccc(C(F)(F)F)c3)c2=O)=C1O [IV-40]
5: herbicidal effect (index) on Abutilon theophrasti medicus [1] | herbicidal effect (index) on Amaranthus viridis L. [2] | Herbicidal effects index, Echinochloa oryzicola Vasing [3] | Herbicidal effects index, Scirpus juncoides Roxb. var. ohwianus. T. Koyama [4] | Herbicidal effects index, Monochoria vaginalis (Burm. f.) Presl var. plantaginea (Roxb.) Solms-Laub. [5] | herbicidal effects on Abutilon theophrasti medicus [6] | herbicidal effects on Echinochloa crus-galli (L.) P. Beauv. var. crus-galli [7] | herbicidal effects on Amaranthus viridis L. [8]

CC1(C)CC(=O)C(C(=O)c2nc3cccnc3n(-c3cccc(C(F)(F)F)c3)c2=O)=C(O)C1 [IV-41]
5: herbicidal effect (index) on Abutilon theophrasti medicus [1] | herbicidal effect (index) on Amaranthus viridis L. [2] | Herbicidal effects index, Echinochloa oryzicola Vasing [3] | Herbicidal effects index, Scirpus juncoides Roxb. var. ohwianus. T. Koyama [4] | Herbicidal effects index, Monochoria vaginalis (Burm. f.) Presl var. plantaginea (Roxb.) Solms-Laub. [5] | herbicidal effects on Abutilon theophrasti medicus [6] | herbicidal effects on Echinochloa crus-galli (L.) P. Beauv. var. crus-galli [7] | herbicidal effects on Amaranthus viridis L. [8]

O=C1CCCC(O)=C1C(=O)c1nc2cccnc2n(-c2ccc(C(F)(F)F)cc2)c1=O [IV-44]
5: herbicidal effect (index) on Abutilon theophrasti medicus [1] | herbicidal effect (index) on Amaranthus viridis L. [2] | Herbicidal effects index, Echinochloa oryzicola Vasing [3] | Herbicidal effects index, Scirpus juncoides Roxb. var. ohwianus. T. Koyama [4] | Herbicidal effects index, Monochoria vaginalis (Burm. f.) Presl var. plantaginea (Roxb.) Solms-Laub. [5] | herbicidal effects on Abutilon theophrasti medicus [6] | herbicidal effects on Echinochloa crus-galli (L.) P. Beauv. var. crus-galli [7] | herbicidal effects on Amaranthus viridis L. [8]

COc1ccccc1-n1c(=O)c(C(=O)C2=C(O)CCCC2=O)nc2cccnc21 [IV-52]
5: herbicidal effect (index) on Abutilon theophrasti medicus [1] | herbicidal effect (index) on Echinochloa oryzicola Vasing [3, 9] | herbicidal effect (index) on Scirpus juncoides Roxb. var. ohwianus. T. Koyama [4, 9] | herbicidal effect (index) on Monochoria vaginalis (Burm. f.) Presl var. plantaginea (Roxb.) Solms-Laub. [5, 9] | herbicidal effects on Abutilon theophrasti medicus [6] | herbicidal effects on Echinochloa crus-galli (L.) P. Beauv. var. crus-galli [7] | herbicidal effects on Amaranthus viridis L. [8]
4: herbicidal effect (index) on Amaranthus viridis L. [2]

Reference: patent US8389523B2, “Substituted quinoxaline and an agrochemical composition thereof” (Kumiai Chemical Industry Co., Ltd., priority 2007, dated 2013)
